The record followed here is ChEMBL document CHEMBL1134270, “Optimization of 4-phenylamino-3-quinolinecarbonitriles as potent inhibitors of Src kinase activity” (J Med Chem, 2001).

A word on the IC50: it is the concentration that gives 50% inhibition.

Data set [1] addresses Proto-oncogene tyrosine-protein kinase Src (Homo sapiens, UniProt P12931). The experiment in a line: Inhibition against Src kinase.
Data set [2] is filed under the species Rattus norvegicus. The experiment in a line: Ability to inhibit the proliferation of c-Src transformed rat fibroblasts growing in suspension. It is filed as functional.
A short description of data set [3]: plasma concentration of compound at one hour after the of intraperitoneal administration of 50 mg/kg. In kind it is ADME, organism-based. More on the design: dose 50 mg/kg, route intraperitoneal. As to conditions: ip.
Data set [4] is described as follows: plasma concentration of compound at four hour after the of intraperitoneal administration of 50 mg/kg. More on the design: dose 50 mg/kg, route intraperitoneal. It is filed as ADME, organism-based. The following applies: ip.
The nature of data set [5]: plasma concentration of compound at four hours after the of intraperitoneal administration of 50 mg/kg. The following applies: ip. More on the design: dose 50 mg/kg, route intraperitoneal. In kind it is ADME, organism-based.
Data set [6] concerns HT-29. The experiment in a line: Inhibition of HT-29 cell monolayer proliferation at 5 uM. In kind it is functional, cell-based. As to conditions: Homo sapiens.
The target of data set [7] is Platelet-derived growth factor receptor (PDGFr) (Rattus norvegicus, UniProt P20786+Q05030). The experiment in a line: Inhibition of PDGF receptor transfected rat1A cell proliferation. In kind it is functional.

Proto-oncogene tyrosine-protein kinase Src, sequence (P12931 2-536 limits assumed): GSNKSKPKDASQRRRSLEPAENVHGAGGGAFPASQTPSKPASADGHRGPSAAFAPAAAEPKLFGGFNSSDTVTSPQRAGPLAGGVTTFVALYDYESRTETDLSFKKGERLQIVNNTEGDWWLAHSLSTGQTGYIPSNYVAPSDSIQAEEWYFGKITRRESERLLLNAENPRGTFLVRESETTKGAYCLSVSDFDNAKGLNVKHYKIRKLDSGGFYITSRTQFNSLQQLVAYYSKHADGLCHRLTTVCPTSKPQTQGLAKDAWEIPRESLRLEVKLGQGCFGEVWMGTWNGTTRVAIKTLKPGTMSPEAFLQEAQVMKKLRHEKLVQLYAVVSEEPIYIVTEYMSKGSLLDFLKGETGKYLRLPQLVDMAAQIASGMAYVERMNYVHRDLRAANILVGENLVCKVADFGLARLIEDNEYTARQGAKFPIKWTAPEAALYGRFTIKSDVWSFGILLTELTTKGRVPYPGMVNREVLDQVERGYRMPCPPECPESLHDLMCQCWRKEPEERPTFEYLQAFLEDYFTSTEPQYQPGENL

`COc1cc2ncc(C#N)c(Nc3cc(O)c(Cl)cc3Cl)c2cc1OC`: the IC50 in data set [1] was 190 nM.

In data set [1], `COc1ccc(Cl)c(Nc2c(C#N)cnc3cc(OC)c(OC)cc23)c1` had an IC50 of 10 nM.

For `COc1cc(Nc2c(C#N)cnc3cc(OCCCNCCN4CCOCC4)c(OC)cc23)c(Cl)cc1Cl`, the half-inhibitory concentration (IC50) in data set [1] stood at 3 nM; in data set [2] it was 1200 nM.

With `COc1cc(Nc2c(C#N)cnc3cc(OCCCn4ccnn4)c(OC)cc23)c(Cl)cc1Cl`, the concentration at 1 h in data set [3] amounted to 1300 ng/mL. In data set [4], this molecule showed a concentration at 4 h of 300 ng/mL. For the same molecule, the figures for the IC50 in data set [1] and in data set [2] were 1.9 nM and 920 nM, respectively.

For the molecule `COc1cc(Nc2c(C#N)cnc3cc(OCCCN4CCOCC4)c(OC)cc23)c(C)cc1C`, the figures for the half-inhibitory concentration (IC50) in data set [1] and in data set [2] were 1.7 nM and 160 nM, respectively.

On to `COc1cc(Nc2c(C#N)cnc3cc(OCCCN4CCOCC4)c(OC)cc23)c(Cl)cc1Cl`, for which the concentration at 4 h in data set [5] stood at 100 ng/mL. Besides, the concentration at 1 h in data set [3] was 100 ng/mL. The IC50 in data set [1] was 0.8 nM; in data set [2] it was 140 nM.

Take `COc1cc(Nc2c(C#N)cnc3cc(OC)c(OC)cc23)c(C)cc1C`: in data set [1], the concentration for half-maximal inhibition (IC50) was 4.6 nM.

Turning to `COc1cc(Nc2c(C#N)cnc3cc(OCCCCCN4CCOCC4)c(OC)cc23)c(Cl)cc1Cl`, the values for the IC50 in data set [1] and in data set [2] were 2.5 nM and 320 nM, respectively.

Regarding `COc1cc(Nc2c(C#N)cnc3cc(OCCCN(C)CCN(C)C)c(OC)cc23)c(Cl)cc1Cl`, the half-maximal inhibitory concentration (IC50) turned out to be 2.3 nM in data set [1] and 650 nM in data set [2].

In data set [1], `COc1cc(Nc2c(C#N)cnc3cc(OC)c(OC)cc23)c(C)cc1Cl` showed an IC50 of 4 nM.

In turn, `CCOc1cc(Nc2c(C#N)cnc3cc(OC)c(OC)cc23)c(Cl)cc1Cl` had a half-inhibitory concentration (IC50) in data set [1] of 1200 nM.

Turning to `COc1cc(Nc2c(C#N)cnc3cc(OCCCN4CCCCC4)c(OC)cc23)c(Cl)cc1Cl`, the values for the IC50 in data set [1] and in data set [2] were 1.2 nM and 150 nM, respectively.

On to `COc1cc(Nc2c(C#N)cnc3cc(OC)c(OCCCN4CCOCC4)cc23)c(Cl)cc1Cl`, for which the half-maximal inhibitory concentration (IC50) is 28 nM in data set [1] and 1200 nM in data set [2].

`COc1cc(Nc2ccnc3cc(OC)c(OC)cc23)c(Cl)cc1Cl` had an IC50 in data set [1] of 81 nM.

Regarding `COc1cc(Nc2c(C#N)cnc3cc(OCCCn4nccn4)c(OC)cc23)c(Cl)cc1Cl`, the concentration for half-maximal inhibition (IC50) in data set [1] was 9.3 nM; in data set [2], 1900 nM.

Turning to `COc1cc(Nc2c(C#N)cnc3cc(OCCCCN4CCOCC4)c(OC)cc23)c(Cl)cc1Cl`, the IC50 was found to be 1.3 nM in data set [1] and 330 nM in data set [2].

As to `COc1cc(Nc2ncnc3cc(OC)c(OC)cc23)c(Cl)cc1Cl`, the half-inhibitory concentration (IC50) in data set [1] was determined as 390 nM.

Regarding `COc1cc(Nc2c(C#N)cnc3cc(OCCCN4CCOCC4)c(OC)cc23)c(Cl)cc1C`, the half-inhibitory concentration (IC50) in data set [1] worked out at 1.1 nM; in data set [2], 100 nM.

On to `COc1cc(Nc2c(C#N)cnc3cc(OCCN4CCOCC4)c(OC)cc23)c(Cl)cc1Cl`, for which the IC50 in data set [1] stood at 2.3 nM; in data set [2] it was 190 nM.

`COc1cc(Nc2c(C#N)cnc3cc(OCCCN4CCC(O)CC4)c(OC)cc23)c(Cl)cc1Cl`: the IC50 in data set [1] came to 0.64 nM; in data set [2], 840 nM.

Molecule `CCCN1CCN(CCCOc2cc3ncc(C#N)c(Nc4cc(OC)c(Cl)cc4Cl)c3cc2OC)CC1` returned a half-inhibitory concentration (IC50) in data set [2] of 160 nM.

With `COc1cc(Nc2c(C#N)cnc3cc(OCCCN4CCOCC4)c(OC)cc23)c(Br)cc1Cl`, the IC50 was 0.95 nM in data set [1] and 71 nM in data set [2].

Molecule `COc1cc(Nc2c(C#N)cnc3cc(OC)c(OC)cc23)c(F)cc1Cl` returned an IC50 in data set [1] of 66 nM.

Take `COc1cc(Nc2c(C#N)cnc3cc(OCCCN4CCNCC4)c(OC)cc23)c(Cl)cc1Cl`: the IC50 in data set [1] came out at 1.1 nM; in data set [2] it was 1700 nM.

Consider `COc1cc(Nc2c(C#N)cnc3cc(OC)c(OC)cc23)c(Br)cc1Cl`, for which 3 nM corresponded to half-maximal inhibition in data set [1] (IC50).

For the molecule `COc1cc(Nc2c(C#N)cnc3cc(OCCCN4CCCN(C)CC4)c(OC)cc23)c(Cl)cc1Cl`, the IC50 in data set [1] was 1.4 nM; in data set [2], 350 nM.

As to `COc1cc(Nc2c(C#N)cnc3cc(OC)c(OC)cc23)c(Cl)cc1C`, in data set [1], the concentration for half-maximal inhibition (IC50) turned out to be 2.9 nM.

Regarding `COc1ccc(Cl)c(Nc2c(C#N)cnc3cc(OCCCN4CCOCC4)c(OC)cc23)c1`, the IC50 in data set [1] worked out at 1.6 nM; in data set [2], 150 nM.

Turning to `COc1cc(Nc2c(C#N)cnc3cc(OCCCN4CCN(C)CC4)c(OC)cc23)c(Cl)cc1Cl` [BOSUTINIB], the concentration at 1 h in data set [3] amounted to 3000 ng/mL. The molecule further displayed a concentration at 4 h in data set [4] of 900 ng/mL. Further, the IC50 in data set [6] worked out at 5000 nM; in data set [7], 4000 nM; in data set [2], 100 nM.

For `COc1cc(Nc2c(C#N)cnc3cc(OCCCN4CCOCC4)c(OC)cc23)c(C)cc1Cl`, the IC50 came to 1.2 nM in data set [1] and 150 nM in data set [2].

Take `CCOc1cc(Nc2c(C#N)cnc3cc(OC)c(OC)cc23)c(Cl)cc1C`: in data set [1], the half-inhibitory concentration (IC50) is more than 5000 nM.

Molecule `COc1cc(Nc2c(C#N)cnc3cc(OC)c(OC)cc23)ccc1Cl` registered an IC50 in data set [1] of 120 nM.

On to `COc1cc(Nc2c(C#N)cnc3cc(OCCCN4CCN(CCO)CC4)c(OC)cc23)c(Cl)cc1Cl`, for which the values for the 50% inhibitory concentration (IC50) in data set [1] and in data set [2] were 0.76 nM and 610 nM, respectively.

Regarding `COc1cc(Nc2c(C#N)cnc3cc(OC)c(OC)cc23)c(Cl)cc1Cl`, the IC50 in data set [1] amounted to 4.3 nM.

Consider `CCN1CCN(CCCOc2cc3ncc(C#N)c(Nc4cc(OC)c(Cl)cc4Cl)c3cc2OC)CC1`, for which the IC50 in data set [2] was determined as 130 nM.

As to `COc1cc(Nc2c(C#N)cnc3cc(OCCCN4CC(C)N(C)C(C)C4)c(OC)cc23)c(Cl)cc1Cl` (stereo not drawn), the concentration for half-maximal inhibition (IC50) in data set [1] amounted to 1.4 nM; in data set [2], 220 nM.

In the case of `COc1cc(Nc2c(C#N)cnc3cc(OCCCn4ccnc4)c(OC)cc23)c(Cl)cc1Cl`, the figures for the IC50 in data set [1] and in data set [2] were 2.1 nM and 1400 nM, respectively.

In the case of `CCCOc1cc(Nc2c(C#N)cnc3cc(OC)c(OC)cc23)c(Cl)cc1Cl`, the IC50 in data set [1] is more than 5000 nM.

`COc1cc2c(Nc3ccc(Cl)cc3Cl)c(C#N)cnc2cc1OCCCN1CCOCC1` had a half-inhibitory concentration (IC50) in data set [2] of 940 nM.
